US6861528B2, “Carboxylated heterocyclic compounds and methods of synthesis” (R.T. Alamo Ventures I, LLC, priority 2002, dated 2005)

System: Protein Serine/Threonine Kinase PKC, non-selective
Assay: Protein Serine/Threonine Kinase PKC, non-selective enzyme assay ([32P]histone quantitated)
Assay type: biochemical
Conditions: 1% DMSO vehicle, rat brain enzyme, histone substrate
Source text: In this example, carboxyflosequinan was subjected to biochemical enzyme assays and radioligand binding assays to determine its percent inhibition of a variety of enzyme activities. Tamaoki and Nakano “Potent and specific inhibitors of protein kinase C of microbial origin” Biotechnology 8:732 (1990); Wilkinson et al. “Isoenzyme specificity of bisindolymaleimides, selective inhibitors of protein kinase C” Biochem. J. 294:335 (1993); Tamaki et al. “Staurosporine, a potent inhibitor of phospholipid/Ca++ dependent protein kinase” Biochem. Biophys. Res. Comm, 135:397 (1986). A brief summary of the conditions for each assay is provided below:
Protein Serine/Threonine Kinase PKC, non-selective: The enzyme was obtained from rat brain and the substrate was 370 μg/ml histone. The reaction was pre-incubated 5 min at 25° C., followed by a 15 min incubation at 25° C. in a buffer of 20 mM Tris-HCl, […] and 0.1 mM CaCl2.2HO, pH 7.4. [^32P]histone was quantitated.
FIG. 3 projects data for carboxyflosequinan in the assays described above. In these protein kinase assays, carboxyflosequinan was used in varying concentrations (in 1% DMSO as the vehicle). For the protein serine/threonine kinase (PKC, non-selective), carboxyflosequinan was tested at a concentrations of 100 μM, 300 μM, and 1000 μM. […] (See, FIG. 3).

Measured: inhibition of protein serine/threonine kinase (PKC, non-selective)

Cn1cc([S+]([O-])CC(=O)O)c(=O)c2ccc(F)cc21 (stereo not drawn) [carboxyflosequinan, 3-carboxymethylsulfinyl-7-fluoro-1-methyl-4-quinolone]
greater than 50%: 100 μM carboxyflosequinan | 300 μM carboxyflosequinan | 1000 μM carboxyflosequinan
